Several values for one entry are separate records, joined by “and”; a condition that tells them apart may be missing. Identical values can stand only once. Like-named read-outs stand apart in the source and are kept apart here. Blank lines part the entries; values can stand above or below the compound they belong to.
Assays:
[1] = tested on: HG-3 cells; assay: alamarBlue cell viability assay; details: HG-3, 24 h; for viability at 10 µM: read-out: cell viability, HG-3, 10 µM, 24 h, vehicle = 100%; for IC50: read-out: HG-3 IC50
[2] = tested on: PGA-1 cells; assay: alamarBlue cell viability assay; details: for viability at 10 µM: read-out: cell viability; for IC50: read-out: PGA-1 IC50
[3] = HPLC stability study in phosphate buffers; assay type: physicochemical; details: for recovery at 24 h: over the pH range studied (pH 4, 7.4 and 9); for % remaining 24 h pH 4 / % remaining 24 h pH 7.4 / % remaining 24 h pH 9 / remaining at 24 h, 14.6 µg/mL: HPLC; for remaining at 24 h, 14.6 µg/mL / half-life at 14.6 µg/mL: phosphate buffer
Method: A preliminary stability study was carried out on selected chalcones, maleic anhydride and maleimide adducts at acidic, neutral and basic conditions (pH 4, 7.4 and 9) using HPLC to determine suitability for further preclinical investigations. […] A possible degradation route for the maleimide 23n could be through the hydrolysis of the cyclic imide of the maleimide ring, leading to the resultant amic acid product.
All samples were analyzed using acetonitrile–water (80:20%, 70:30%, 60:40% isocratic) as the mobile phase over 10 min and a flow rate of 1 mL/min. Stock solutions were prepared by dissolving 5 mg of compounds in a mobile phase ([(acetonitrile (80%): water (20%)], 10 mL). Anhydride 22h was not detected at its retention time of 5.2 min at pH 9.0. The data presented represent the results of single experiments.
The HPLC stability studies for compounds 21a, 21i, 22h, 23a, 23g, 23n, 24a, 24h, 26a and 26n were performed using a Symmetry® column (C18, 5 µm, 4.6 × 150 mm), a Waters 2487 Dual Wavelength Absorbance detector, and an HPLC pump: Waters 1525 binary and Autosampler; Waters 717 plus (Waters Corporation, Milford, MA, USA), mobile phase [(acetonitrile (80%) and water (20%)] with a typical run time of 10 min and a flow rate of 1 mL/min with detection at 254 nm. The selected compounds 21a, 21i, 22h, 23a, 23g, 23n, 24a, 24h, 26a and 26n (5 mg) in the mobile phase (10 mL) provided the stock solution for the analysis. The phosphate buffers were prepared at pH values of 4, 7.4 and 9, as described in the British Pharmacopoeia monograph 2019. The stock solution (30 µL) was added to the appropriate buffer (1 mL) and retained at 37 °C. Samples were then analyzed over the following 24-h period at selected time intervals (t = 0 min, 5 min, 30 min, 60 min, 90 min, 120 min and 24 h).

[4] = tested on: HG-3 and PGA-1 cell lines; assay: alamarBlue cell viability assay, mean of both CLL cell lines; assay type: cell-based, human; details: mean of HG-3 and PGA-1
[5] = tested on: HG-3 cells
[6] = tested on: PGA-1 cells; details: 10 µM

Structure (SMILES): O=C(/C=C/c1c2ccccc2cc2ccccc12)c1ccccn1 [Compound 21n, (E)-3-(anthracen-9-yl)-1-(pyridin-2-yl)prop-2-en-1-one]
viability at 1 µM ([1]; Homo sapiens, read-out: cell viability, HG-3, 1 µM, 24 h, vehicle = 100%): 50 to 61% | viability at 10 µM ([1]; Homo sapiens): 37 to 54% | viability at 10 µM ([2]; Homo sapiens, 24 h): 47%

recovery at 24 h [3]: < 50% | Half-life pH 4 ([3]; pH 4 buffer, 37 °C): 2.1 h | % remaining 24 h pH 4 ([3]; pH 4 buffer, 37 °C): 0.81% | Half-life pH 7.4 ([3]; pH 7.4 buffer, 37 °C): 1 h | % remaining 24 h pH 7.4 ([3]; pH 7.4 buffer, 37 °C): 3.13% | % remaining 24 h pH 9 ([3]; pH 9 buffer, 37 °C): not detected
Structure (SMILES): O=C(/C=C/C12c3ccccc3C(c3ccccc31)C1C(=O)OC(=O)C12)c1ccc(F)cc1 (stereo not shown) [Compound 22h]

Structure (SMILES): COc1ccc(C(=O)/C=C/C23c4ccccc4C(c4ccccc42)C2C(=O)NC(=O)C23)cc1 (stereo not shown) [Compound 23i, (E)-9-(3-(4-Methoxyphenyl)-3-oxoprop-1-en-1-yl)-9,10-dihydro-9,10-[3,4]epipyrroloanthracene-12,14-dione]
IC50 [4]: 11.4 µM | IC50 [1]: 10.3 µM | IC50 ([2]; PGA-1, 24 h): 12.6 µM

Structure (SMILES): COc1cc(C(=O)/C=C/C23c4ccccc4C(c4ccccc42)C2C(=O)NC(=O)C23)cc(OC)c1OC (stereo not shown) [Compound 23k, (E)-9-(3-Oxo-3-(3,4,5-trimethoxyphenyl)prop-1-en-1-yl)-9,10-dihydro-9,10-[3,4] epipyrroloanthracene-12,14-dione]
IC50 [4]: 5.19 µM | IC50 [1]: 4.9 µM | IC50 ([2]; PGA-1, 24 h): 5.38 µM

recovery at 24 h [3]: < 50% | remaining at 24 h, 14.6 µg/mL ([3]; pH 4 buffer, 37 °C, read-out: % remaining 24 h pH 4): 48.4% | half-life at 14.6 µg/mL ([3]; pH 4 buffer, 37 °C, read-out: Half-life pH 4 (converted)): 4.17 h | remaining at 24 h, 14.6 µg/mL ([3]; pH 7.4 buffer, 37 °C, read-out: % remaining 24 h pH 7.4): 45.2% | half-life at 14.6 µg/mL ([3]; pH 7.4 buffer, 37 °C, read-out: Half-life pH 7.4 (converted)): 23.5 h | remaining at 24 h, 14.6 µg/mL ([3]; pH 9 buffer, 37 °C, read-out: % remaining 24 h pH 9): 33.6% | half-life at 14.6 µg/mL ([3]; pH 9 buffer, 37 °C, read-out: Half-life pH 9 (converted)): 23.5 h
Structure (SMILES): O=C(/C=C/C12c3ccccc3C(c3ccccc31)C1C(=O)N(c3ccccc3)C(=O)C12)c1ccc(Br)cc1 (stereo not shown) [Compound 24a]
viability at 10 µM ([1]; Homo sapiens): 14% | viability at 10 µM ([2]; Homo sapiens, 24 h): 25%

Half-life pH 4 ([3]; pH 4 buffer, 37 °C): 14.8 h | % remaining 24 h pH 4 ([3]; pH 4 buffer, 37 °C): 25% and 24.97% | Half-life pH 7.4 ([3]; pH 7.4 buffer, 37 °C): > 24 h | % remaining 24 h pH 7.4 ([3]; pH 7.4 buffer, 37 °C): 80% and 79.48% | Half-life pH 9 ([3]; pH 9 buffer, 37 °C): > 24 h | % remaining 24 h pH 9 ([3]; pH 9 buffer, 37 °C): 81% and 80.99%
Structure (SMILES): O=C(/C=C/C12c3ccccc3C(c3ccccc31)C1C(=O)N(c3ccccc3)C(=O)C12)c1ccc(F)cc1 (stereo not shown) [Compound 24h]

Structure (SMILES): O=C(C=CC12c3ccccc3C(c3ccccc31)C1C(=O)N(c3ccccc3)C(=O)C12)c1ccccn1 (stereo not shown) [Compound 24n, 9-(E)-3-Oxo-3-(pyridin-2-yl)prop-1-en-1-yl)-13-phenyl-9,10-dihydro-9,10-[3,4]epipyrroloanthracene-12,14-dione]
cell viability ([5]; 1 µM): 48% | cell viability ([5]; 10 µM): 4%

Structure (SMILES): O=C(C=CC12c3ccccc3C(c3ccccc31)C1C(=O)N(c3ccccc3)C(=O)C12)c1cccs1 (stereo not shown) [Compound 24q, 9-(E)-3-Oxo-3-(thiophen-2-yl)prop-1-en-1-yl)-13-phenyl-9,10-dihydro-9,10-[3,4]epipyrroloanthracene-12,14-dione]
cell viability ([5]; 10 µM): 24%

Structure (SMILES): O=C(C=CC12c3ccccc3C(c3ccccc31)C1C(=O)N(c3ccc(Cl)cc3)C(=O)C12)c1ccc(Br)cc1 (stereo not shown) [Compound 25a, (E)-9-(3-(4-Bromophenyl)-3-oxoprop-1-en-1-yl)-13-(4-chlorophenyl)-9,10-dihydro-9,10-[3,4]epipyrroloanthracene-12,14-dione]
cell viability [6]: 33%

Structure (SMILES): O=C(/C=C/C12c3ccccc3C(c3ccccc31)C1C(=O)N(c3ccc(Cl)cc3)C(=O)C12)c1ccc(F)cc1 (stereo not shown) [Compound 25h, (E)-13-(4-Chlorophenyl)-9-(3-(4-fluorophenyl)-3-oxoprop-1-en-1-yl)-9,10-dihydro-9,10[3,4]epipyrroloanthracene-12,14-dione]
cell viability ([5]; 10 µM): 35%

Structure (SMILES): O=C(C=CC12c3ccccc3C(c3ccccc31)C1C(=O)N(c3ccc(Cl)cc3)C(=O)C12)c1cccs1 (stereo not shown) [Compound 25q, (E)-13-(4-Chlorophenyl)-9-(3-oxo-3-(thiophen-2-yl)prop-1-en-1-yl)-9,10-dihydro-9,10-[3,4]epipyrroloanthracene-12,14-dione]
cell viability ([5]; 10 µM): 47%

Structure (SMILES): O=C(c1ccccc1)c1ccc(N2C(=O)C3C4c5ccccc5C(/C=C/C(=O)c5cccs5)(c5ccccc54)C3C2=O)cc1 (stereo not shown) [Compound 26q, (E)-13-(4-Benzoylphenyl)-9-(3-oxo-3-(thiophen-2-yl)prop-1-en-1-yl)-9,10-dihydro-9,10-[3,4]epipyrroloanthracene-12,14-dione]
cell viability ([5]; 10 µM): 56%

Structure (SMILES): Nc1nc(F)nc2c1ncn2[C@@H]1O[C@H](CO)[C@@H](O)[C@@H]1O [Fludarabine, fludarabine, reference compound]
IC50 ([4]; Homo sapiens, CLL cell): 30.1 µM | IC50 ([1]; Homo sapiens): 28.1 µM | IC50 ([2]; Homo sapiens, 24 h): 32 µM
